Entries after “also recorded” stand apart in the source; their conditions may differ.

Series [1] deals with MIA PaCa-2 human pancreatic cancer cells. Nature of the series: Structural requirement screen for cancer cell uptake and retention. The class given is cell-based. The conditions noted are these: cultured MIA PaCa-2 cells. The procedure: FIG. 45 depicts structural requirement of heptamethine cyanine dyes for cancer cell uptake and retention in accordance with various embodiments of the present invention. A series of heptamethine cyanine dyes and their derivatives were screened in cultured MIA PaCa-2 human pancreatic cancer cells with parental MHI-148 served as a positive control.
Cells (1×10^4/well) were seeded on vitronectin-coated four-well chamber slides (Nalgen Nunc, Naperville, Ill.) and incubated with T-medium containing 5% FBS for 24 h. After the cells had attached to the chamber slides, the cells were washed with PBS (Phosphate Buffered Saline) and exposed to the cyanine dye at a concentration of 20 μM in T-medium. The slides were incubated at 37° C. for 30 min, washed twice with PBS to remove excess dyes, and cells were fixed with 10% formaldehyde at 4° C. The slides were then washed twice with PBS and covered with glass coverslips with an aqueous mounting medium (Sigma-Aldrich, St. Louis, Mo.). Images were recorded by confocal laser microscopy (Zeiss LSM 510 META, Germany) using a 633 nm excitation laser and 670-810 nm long pass filter, or a fluorescence microscope (Olympus 1×71; Olympus, Melville, N.Y.) equipped with a 75 W Xenon lamp and an Indo-Cyanine Green filter cube (excitation 750-800 nm; emission 820-860 nm) (Chroma, Rockingham, Vt.).

Series [2] deals with human renal cancer SN12C at subcutaneous sites. Nature of the series: Structural requirement of uptake and retention by tumor tissues in mice. Format: in vivo. The conditions noted are these: i.p. 10 nmol per mouse, 24 hrs. The procedure:
FIG. 46 depicts structural requirement of the uptake and retention of heptamethine cyanine dyes by tumor tissues in mice in accordance with various embodiments of the present invention. Mice bearing human renal cancer SN12C at subcutaneous sites were injected i.p. with MHI-148, IR-1, IR-2, IR-3 and IR-4 heptamethine cyanine dyes at a dose of 10 nmol per mouse. Whole-body optical imaging was taken at 24 hrs using a Kodak Imaging System.
During imaging, mice were maintained in an anesthetized state.

In series [3] the test system is cultured human cancer cell lines in vitro and their xenograft tumors in vivo. Nature of the series: Classification of heptamethine cyanine dyes as active or inactive. The arrangement: key: Active: Activity of the dyes denotes specific uptake by cultured human cancer cell lines in vitro and their xenograft tumors in vivo, setermined by NIR fluorescence imaging.; Inactive: These heptamethine cyanine dyes were not accumulated in tumor cells in vitro and xenograft tumors in vivo. Format: cell-based. The conditions noted are these: specific uptake in vitro and in xenograft tumors in vivo, NIR fluorescence imaging. From the text:
A comparative analysis also uncovered several common structural features of heptamethine cyanine dyes accounting for their preferential uptake and retention by cancer cells. […] A rigid cyclohexenyl ring in the heptamethine chain with a central chlorine atom maintains photostability, increases quantum yield, decreases photobleaching, and reduces dye aggregation in solution (1).

Series [4] deals with organic anion transporting peptides (OATPs). The experiment in a line: Blockade of dye uptake into ARCaPM cells by BSP. Format: cell-based, human. The conditions noted are these: 250 μM BSP. The method, then:
ARCaPM Cells were plated on live-cell imaging chambers from World Precision Instrument (Sarasota, Fla.) overnight. Cells were treated with 20 μM IR-780 and 250 μM BSP at the same time and cells were imaged using a Perkin-Elmer Ultraview ERS spinning disc confocal microscope.
To determine if the cyanine dye uptake and accumulation in cancer cells was dependent upon OATPs, cells were preincubated with 250 μM bromosulfophthalein (BSP), a competitive inhibitor of organic anion transporting peptides (OATPs) (25), for 5 minutes prior to incubating the cells with cyanine dyes. The uptake and accumulation of cyanine dyes in the presence and absence of BSP were conducted in the stage warmer incubator for a period of 35 minutes. The levels of cyanine dye taken up and accumulated in normal prostate (P69) and prostate cancer (ARCaPM) cells were determined and compared on a real-time basis.

For series [5] the following is noted: mouse, in vivo. The method, then:
In control mice, the same volume of PBS was injected. The body weight and lethality of these mice were closely followed for 28 days.

For `CC(=O)OCCCN1/C(=C/C=C2\CCCC(/C=C/C3N(CCCOC(C)=O)c4ccccc4C3(C)C)=C2Cl)C(C)(C)c2ccccc21` (stereo not drawn) [IR-2], in series [1], the “uptake and retention by cancer cell line compared with MHI-148” value was “devoid of any uptake and retention”. Moreover, the “tumor fluorescence signal in whole-body optical imaging” value (“tumor fluorescence signal” for short) in series [2] is given as “background fluorescence signals”. Also, the “Active and inactive heptamethine cyanine dyes” value in series [3] is “Inactive dyes^b”.
Regarding `CC1(C)/C(=C\C=C2/CCCC(/C=C/C3N(CCCO)c4ccccc4C3(C)C)=C2Cl)N(CCCO)c2ccccc21` (stereo not drawn) [IR-1], the “uptake and retention by cancer cell line compared with MHI-148” value in series [1] is “devoid of any uptake and retention”. The “tumor fluorescence signal” value in series [2] is “background fluorescence signals”. Further, the “Active and inactive heptamethine cyanine dyes” value in series [3] is given as “Inactive dyes^b”.
Turning to `CC1(C)/C(=C\C=C2/CCCC(/C=C/C3N(CCCN)c4ccccc4C3(C)C)=C2Cl)N(CCCN)c2ccccc21` (stereo not drawn) [IR-3], the “uptake and retention by cancer cell line compared with MHI-148” value in series [1] is “devoid of any uptake and retention”. Besides, the “tumor fluorescence signal” value in series [2] is reported as “background fluorescence signals”. Moreover, the “Active and inactive heptamethine cyanine dyes” value in series [3] is given as “Inactive dyes^b”.
In the case of `O=C1OC(c2ccc(O)c(S(=O)(=O)O)c2)(c2ccc(O)c(S(=O)(=O)O)c2)c2c(Br)c(Br)c(Br)c(Br)c21` [BSP, bromosulfophthalein], the “effect on uptake of IR-780 by ARCaPM cells” value in series [4] (20 μM IR-780) is on record as “complete blockade; also recorded: significantly inhibited”. Moreover, the “effect on uptake of IR-783 by ARCaPM cells” value in series [4] (20 μM IR-783) was “abolished; also recorded: abrogated”.
On to `CC1(C)C(/C=C/C=C/C=C/C=C2\N(CCCCS(=O)(=O)O)c3ccc4ccccc4c3C2(C)C)=[N+](CCCCS(=O)(=O)[O-])c2ccc3ccccc3c21` [ICG, indocyanine green, reference compound], for which the “toxicity as evidenced by gains of body weight” value in series [5] is recorded as “no toxicity was detected”.

The record behind these values is patent publication US20170314056A1, “METHOD OF USING NEAR INFRARED FLUORESCENT DYES FOR IMAGING AND TARGETING CANCERS” (priority 2010, published 2017).
